One assay relates to A. baumannii. Kind of assay: MIC by broth microdilution, A. baumannii (WT). It counts as cell-based, Acinetobacter baumannii. (Broth dilution looks for growth in wells or tubes with falling amounts of substance.)
In a further assay the test system is S. aureus. Kind of assay: MIC by broth microdilution, S. aureus. Particulars: for MIC S. aureus: cation adjusted Mueller Hinton broth, 35° C. 20 hours. It counts as cell-based, Staphylococcus aureus.
The mark [1] stands for this setting: RPMI medium supplemented with 10% FCS, 35° C. 20 hours.

Each structure is given as a SMILES string. Values after ≈ are worked out from the molar mass of the structure shown. Where two headings read alike, the source gives them in different places.

Usually MIC stands for the lowest concentration that inhibits growth of the organism.

Compound `CO[C@H]1/C=C/O[C@@]2(C)Oc3c(C)c(O)c4c(c3C2=O)C2=NC3(CCCN(C)CC3)NC2=C(NC(=O)/C(C)=C\C=C\[C@H](C)[C@H](O)[C@@H](C)[C@@H](O)[C@@H](C)[C@H](OC(C)=O)[C@@H]1C)C4=O` (single isomer, unassigned) [Compound 7B] gave an MIC A. baumannii with A. baumannii (setting [1]) of 0.125 µg/mL (≈ 0.153 µM). In the assay on S. aureus, the MIC S. aureus stood at 0.008 µg/mL (≈ 0.00977 µM).

Turning to `CO[C@H]1/C=C/O[C@@]2(C)Oc3c(C)c(O)c4c(c3C2=O)C2=NC3(CC5CCC(C3)N5)NC2=C(NC(=O)/C(C)=C\C=C\[C@H](C)[C@H](O)[C@@H](C)[C@@H](O)[C@@H](C)[C@H](OC(C)=O)[C@@H]1C)C4=O` (single isomer, unassigned) [Compound 12A], in the assay with A. baumannii (setting [1]), the MIC A. baumannii was 0.06 µg/mL (≈ 0.0734 µM). The compound also registered an MIC S. aureus in the assay on S. aureus of 0.06 µg/mL (≈ 0.0734 µM).

In the case of `CO[C@H]1/C=C/O[C@@]2(C)Oc3c(C)c(O)c4c(c3C2=O)C2=NC3(CC5CCC(C3)N5C)NC2=C(NC(=O)/C(C)=C\C=C\[C@H](C)[C@H](O)[C@@H](C)[C@@H](O)[C@@H](C)[C@H](OC(C)=O)[C@@H]1C)C4=O` (single isomer, unassigned) [Compound 13A], the MIC A. baumannii against A. baumannii (setting [1]) is 0.03 µg/mL (≈ 0.0361 µM). Further, the MIC in the assay with S. aureus (Staphylococcus aureus, 20 h, read-out: MIC S. aureus, cation adjusted Mueller Hinton broth, 35° C. 20 hours) came to 0.03 µg/mL (≈ 0.0361 µM).

In the assay on A. baumannii (setting [1]), `CO[C@H]1/C=C/O[C@@]2(C)Oc3c(C)c(O)c4c(c3C2=O)C2=NC3(CC5CCC(C3)N5C(C)C)NC2=C(NC(=O)/C(C)=C\C=C\[C@H](C)[C@H](O)[C@@H](C)[C@@H](O)[C@@H](C)[C@H](OC(C)=O)[C@@H]1C)C4=O` (single isomer, unassigned) [Compound 14A] showed an MIC A. baumannii of 0.25 µg/mL (≈ 0.291 µM). The compound further displayed an MIC S. aureus in the assay with S. aureus of 0.016 µg/mL (≈ 0.0186 µM).

Compound `CO[C@H]1/C=C/O[C@@]2(C)Oc3c(C)c(O)c4c(c3C2=O)C2=NC3(CC5CCC(C3)N5C(C)C)NC2=C(NC(=O)/C(C)=C\C=C\[C@H](C)[C@H](O)[C@@H](C)[C@@H](O)[C@@H](C)[C@H](OC(C)=O)[C@@H]1C)C4=O` (single isomer, unassigned) [Compound 14B] returned an MIC A. baumannii against A. baumannii (setting [1]) of 0.016 µg/mL (≈ 0.0186 µM). In the assay with S. aureus, the MIC S. aureus came out at 0.008 µg/mL (≈ 0.00931 µM).

With `CCCN1C2CCC1CC1(C2)N=C2C(=C3NC(=O)/C(C)=C\C=C\[C@H](C)[C@H](O)[C@@H](C)[C@@H](O)[C@@H](C)[C@H](OC(C)=O)[C@H](C)[C@@H](OC)/C=C/O[C@@]4(C)Oc5c(C)c(O)c(c2c5C4=O)C3=O)N1` (single isomer, unassigned) [Compound 20A], in the assay on A. baumannii (setting [1]), the MIC A. baumannii turned out to be 0.25 µg/mL (≈ 0.291 µM). For the same compound, the MIC S. aureus in the assay on S. aureus worked out at 0.008 µg/mL (≈ 0.00931 µM).

In the case of `CO[C@H]1/C=C/O[C@@]2(C)Oc3c(C)c(O)c4c(c3C2=O)C2=NC3(NC2=C(NC(=O)/C(C)=C\C=C\[C@H](C)[C@H](O)[C@@H](C)[C@@H](O)[C@@H](C)[C@H](OC(C)=O)[C@@H]1C)C4=O)C1CC2CC3CN(C2)C1` (some centres unmarked) [Compound 3A], the MIC A. baumannii against A. baumannii came to 0.25 µg/mL (≈ 0.297 µM). The compound also returned an MIC S. aureus against S. aureus of 0.008 µg/mL (≈ 0.00949 µM).

The compound `CCCN1CC2CN(CCC)CC(C1)C21N=C2C(=C3NC(=O)/C(C)=C\C=C\[C@H](C)[C@H](O)[C@@H](C)[C@@H](O)[C@@H](C)[C@H](OC(C)=O)[C@H](C)[C@@H](OC)/C=C/O[C@@]4(C)Oc5c(C)c(O)c(c2c5C4=O)C3=O)N1` (some centres unmarked) [Compound 4] registered an MIC A. baumannii in the assay with A. baumannii (setting [1]) of 0.03 µg/mL (≈ 0.0327 µM). The same compound came in with an MIC S. aureus in the assay with S. aureus of 0.016 µg/mL (≈ 0.0175 µM).

In turn, `CO[C@H]1/C=C/O[C@@]2(C)Oc3c(C)c(O)c4c(c3C2=O)C2=NC3(NC2=C(NC(=O)/C(C)=C\C=C\[C@H](C)[C@H](O)[C@@H](C)[C@@H](O)[C@@H](C)[C@H](OC(C)=O)[C@@H]1C)C4=O)C1CNCC3CNC1` (some centres unmarked) [Compound 17] came in with an MIC A. baumannii in the assay with A. baumannii (setting [1]) of 0.5 µg/mL (≈ 0.601 µM). Further, the MIC S. aureus in the assay on S. aureus worked out at 0.008 µg/mL (≈ 0.00962 µM).

Turning to `CO[C@H]1/C=C/O[C@@]2(C)Oc3c(C)c(O)c4c(c3C2=O)C2=NC3(NC2=C(NC(=O)/C(C)=C\C=C\[C@H](C)[C@H](O)[C@@H](C)[C@@H](O)[C@@H](C)[C@H](OC(C)=O)[C@@H]1C)C4=O)C1CN2CC3CN(C1)C2` (some centres unmarked) [Compound 19], the MIC A. baumannii with A. baumannii (setting [1]) stood at 1 µg/mL (≈ 1.18 µM). Besides, in the assay on S. aureus, the MIC S. aureus was determined as 0.004 µg/mL (≈ 0.00474 µM).

The record behind these values is US20250101039A1, “RIFAMYCIN DERIVATIVES FOR THE TREATMENT OF DISEASES” (priority 2022, published 2025).
